Measurements: patent US20040014808A1, “Novel derivatives of carnosic acid” (priority 2002, published 2004)

Assay: DPPH free-radical scavenging assay
Format: biochemical
Conditions: 300 μM DPPH in methanol, room temperature, 30 min, read at 517 nm, mean of 3 observations; for IC50: read-out: IC50 (μM), concentration of sample required to scavenge 50% DPPH free radicals
Protocol: DPPH Radical Scavenging Assay. The DPPH free radical scavenging assay is based on the abilities of compounds to quench stable DPPH free radicals (Lee, S. K.; Mbwambo, Z. H.; Chung, H. S.; Luyengi, L.; Gamez, E. J. C.; Mehta, R. G.; Kinghorn, A. D.; Pezzuto, J. M. Comb. Chem. High Throughput Screen. 1998, 1, 35-46). Reaction mixtures (200 μL) were prepared by combining multiple concentrations of test sample in methanol (10 μL) with DPPH (Aldrich, Milwaukee, Wis.) in methanol (190 μL). The final DPPH concentration was 300 μM. The reaction mixtures were incubated in 96-well microtiter plates at room temperature for 30 min. After the reaction, reduction of the radical was then measured at 517 nm. Percent inhibition by sample treatment was determined by comparison with controls containing no test samples. IC50 values denote the concentration of sample, required to scavenge 50% DPPH free radicals (Ibid.).

| IC50 (μg/mL), concentration of sample required to scavenge 50% DPPH free radicals [µg/mL] | IC50 [µM] | Structure (SMILES) |
| --- | --- | --- |
| 23.9 | 66 | CC1(C)CCCC23C(=O)OC(CC12)c1cc(C(CO)CO)c(O)c(O)c13 (centres unmarked) [Compound 6, 11,12,16,17-tetrahydroxy-7-10-(epoxymethano)-abiet-8,11,13-triene-20-one] |
| 4.8 | 37.8 | Oc1cccc(O)c1O [Pyrogallol] |
| 11.8 | 66.8 | O=C1O[C@H]([C@@H](O)CO)C(O)=C1O [Ascorbic acid] |
| 9.8 | 46.1 | CCCOC(=O)c1cc(O)c(O)c(O)c1 [Propyl gallate] |
| 37.9 | 114 | CC(C)c1cc2c(c(O)c1O)[C@@]13CCCC(C)(C)[C@@H]1C[C@@H]2OC3=O [Compound 5, 11,12-dihydroxy-7-10-(epoxymethano)-abiet-8,11,13-triene-20-one] |

| Structure (SMILES) | IC50 (μg/mL), concentration of sample required to scavenge 50% DPPH free radicals [µg/mL] | IC50 [µM] |
| --- | --- | --- |
| COc1c(C(C)C)cc2c(c1O)C1(CO)CCCC(C)(C)C1CC2 (centres unmarked) [Compound 4, 11,20-dihydroxy-12-methoxy-abiet-8,11,13-triene] | 27.7 | 83.4 |
| CC(C)c1cc2c(c(O)c1O)[C@@]1(C(=O)O)CCCC(C)(C)[C@@H]1CC2 [Compound 1, carnosic acid] | 18.7 | 53.3 |
